From patent publication US20210145834A1, “COMBINATION OF POZIOTINIB WITH CYTOTOXIC AGENT AND/OR OTHER MOLECULARLY TARGETED AGENT AND USE THEREOF” (Spectrum Pharmaceuticals, Inc., priority 2018, published 2021)
Several values for one entry are separate records, joined by “and”; a condition that tells them apart may be missing. Equal entries are not always repeated. Where two headings read alike, the source gives them in different places.

How the values were obtained:
Format in all cases: cell-based
H1975 cells = test: Cell growth inhibition assay (CellTiter 96 Aqueous One), single agents and combinations; conditions: H1975, single agent, 2 days
Procedure: (§1) The effect of the inventive compositions on the cancer cell growth inhibition was conducted in EGFR-overexpressed or -mutated cancer cell lines.
(§2) All cells except for H1975 were cultured for 72 hours prior to cell plating. Cells were seeded in a 96-well plate at 4 to 15×10^3 cells/well. Approximately 24 hours after plating, cells were exposed to ten, two-fold or three fold serial dilutions of test individual compounds or the combination of the two test compounds at a constant molar to molar ratio or non-constant ratio of two agents. Cells were incubated in the presence of compounds for 3 days except for H1975, which was for 2 days at 3×10^3 cells/well.
(§3) Cell growth inhibition based on measurement of cellular protein content is determined by sulforhodamine B colorimetric assay according to the “Nat Protoc. […] The absorbance was read on a SpectraMax™ plate reader at 540 nm. For H1975 cells, cell growth (%) is determined by adding CellTiter™ 96 Aqueous One Solution Cell Proliferation Assay reagent (Promega) according to the manufacturer's protocol.
(§4) Inhibition of cell growth was estimated after treatment with test agent or combination of test agents for incubating time (2-3 days) and comparing the signal to cells treated with vehicle (DMSO). Cell growth (%) was calculated by following equations.
(§5) Percentage growth inhibition was calculated using:
(§6) a. [(Ti−Tz)/(C−Tz)]×100, for concentrations for which Ti=Tz
(§7) b. [(Ti−Tz)/Tz]×100, for concentrations for which Ti<Tz
(§8) Each T value means an absorbance. Tz: Time zero (cell density group before the treatment of test group), C:100% control growth […] test agent, Ti: Test growth in the presence of drug at the concentration levels.
(§9) Combination effects on potency were evaluated by combination Index using Calcusyn™ Software. The range of Combination Index (CI) for two compounds is described in Table 2.
(§10) Fifty percent growth inhibition values (GI50) for combinations of poziotinib with partner drugs were calculated and the single dosing growth inhibition (%) at the dose of combo GI50 were also calculated by using GraphPad Prism™ v6. The combination Index (CI) at the dose of combination GI50 was evaluated by using CalcuSyn™ (Biosoft).

TE-4 cells = test: Cell growth inhibition assay (sulforhodamine B), single agents and combinations; conditions: 72 h; TE-4, single agent, 3 days
Procedure: The effect of the inventive compositions on the cancer cell growth inhibition was conducted in EGFR-overexpressed or -mutated cancer cell lines. […] All cells except for H1975 were cultured for 72 hours prior to cell plating. […] Approximately 24 hours after plating, cells were exposed to ten, two-fold or three fold serial dilutions of test individual compounds or the combination of the two test compounds at a constant molar to molar ratio or non-constant ratio of two agents. Cells were incubated in the presence of compounds for 3 days except for H1975, which was for 2 days at 3×10^3 cells/well. Cell growth inhibition based on measurement of cellular protein content is determined by sulforhodamine B colorimetric assay according to the “Nat Protoc. […] The absorbance was read on a SpectraMax™ plate reader at 540 nm. For H1975 cells, cell growth (%) is determined by adding CellTiter™ 96 Aqueous One Solution Cell Proliferation Assay reagent (Promega) according to the manufacturer's protocol. […] Cell growth (%) was calculated by following equations. Percentage growth inhibition was calculated using: a. […] [(Ti−Tz)/Tz]×100, for concentrations for which Ti<Tz Each T value means an absorbance. […] Combination effects on potency were evaluated by combination Index using Calcusyn™ Software. […] The combination Index (CI) at the dose of combination GI50 was evaluated by using CalcuSyn™ (Biosoft).

HCC827 cells = test: as above; conditions: HCC827, single agent, 3 days
Procedure: as §1, §2, §3, §4, §5, §6, §7, §8, §9, §10

BT-474 cells = test: as above; conditions: BT-474, single agent, 3 days
Procedure: as §1, §2, §3, §4, §5, §6, §7, §8, §9, §10

MDA-MB-453 cells = test: as above; conditions: MDA-MB-453, single agent, 3 days
Procedure: as §1, §2, §3, §4, §5, §6, §7, §8, §9, §10

SK-BR-3 cell line = test: Synergy effect study on cell proliferation (Example 2), single agents and 6x6 combo matrix; conditions: SK-BR-3, single compound, 3 days
Procedure: In this example, effects of direct cell killing of selected cancer cell line Calu-3, BT-474 and SK-BR-3 treated with Poziotinib alone or in combination with other agents were assessed.
as §2, with “cells” for “cells except for H1975”, “in the media listed in the temperature of 37° C., 5% CO2 and 95% humidity.” for “for 72 hours prior to cell plating.”, “days.” for “days except for H1975, which was for 2 days at 3×10^3 cells/well.”
as §4
(§11) Percentage growth inhibition was calculated using both Bliss independence model and Lowewe additivity model. A score higher than 5 indicates synergy and a score less that −5 indicates antagonism.
Calu-3, BT-474 or SK-BR-3 cell lines were tested with Poziotinib combined with a second compound respectively in a 6×6 combo matrix for 3 days at 37° C., 5% CO2 and 95% humidity as shown in combinations shown in the tables herein below: […]

Calu-3 cell line = test: as above; conditions: Calu-3, single compound; for Max inh. / IC50: 3 days
Procedure: as §2, with “Cells” for “All cells except for H1975 were cultured for 72 hours prior to cell plating. Cells”, “days.” for “days except for H1975, which was for 2 days at 3×10^3 cells/well.”
as §4, §11

BT-474 cell line = test: as above; conditions: BT-474, single compound; for IC50 / Max inh.: 3 days
Procedure: as §2, with “Cells” for “All cells except for H1975 were cultured for 72 hours prior to cell plating. Cells”, “days.” for “days except for H1975, which was for 2 days at 3×10^3 cells/well.”
as §4, §11

SK-BR-3 cells = test: Cell growth inhibition assay (sulforhodamine B), single agents and combinations; conditions: Homo sapiens, SK-BR-3, 72 h; SK-BR3, single agent, 3 days
Procedure: as §1, §2, §3, §4, §5, §6, §7, §8, §9, §10

MDA-MB-468 cells = test: as above; conditions: Homo sapiens, 72 h; MDA-MB-468, single agent, 3 days
Procedure: as §1, §2, §3, §4, §5, §6, §7, §8, §9, §10

N87 cells = test: as above; conditions: 72 h; N87, single agent, 3 days
Procedure: as §1, §2, §3, §4, §5, §6, §7, §8, §9, §10

MCF-7 cells = test: as above; conditions: Homo sapiens, MCF7, 72 h; MCF-7, single agent, 3 days
Procedure: as §1, §2, §3, §4, §5, §6, §7, §8, §9, §10

MDA-MB-361 cells = test: as above; conditions: Homo sapiens, 72 h; MDA-MB-361, single agent, 3 days
Procedure: as §1, §2, §3, §4, §5, §6, §7, §8, §9, §10

[1] = Homo sapiens, Calu-3, 72 h, read-out: IC50

In the case of O=c1[nH]cc(F)c(=O)[nH]1 [5-FU, Fluorouracil], the GI50 (H1975 cells; Homo sapiens, NCI-H1975, 48 h) is reported as > 10000 nM, the GI50 (TE-4 cells) is reported as 7900 nM and the GI50 (HCC827 cells; Homo sapiens, 72 h) is reported as 980 nM. The GI50 (BT-474 cells; Homo sapiens, BT-474, 72 h) was 9000 nM and the GI50 (MDA-MB-453 cells; Homo sapiens, MDA-MB-453, 72 h) was 385 nM.

N.N.[Cl][Pt][Cl] [Cisplatin] was tested, and the GI50 (H1975 cells) was > 10000 nM, the IC50 (SK-BR-3 cell line) was 549 nM and the Max inh. (SK-BR-3 cell line) was 98.11%. For the same compound, the GI50 (HCC827 cells) was > 20000 nM, the GI50 (BT-474 cells) was > 20000 nM and the GI50 (MDA-MB-453 cells) was > 10000 nM. For the same compound, the Max inh. (Calu-3 cell line) was 59.75% and 69.39% and 68.77%, the IC50 (BT-474 cell line) was > 100000 nM and the Max inh. (BT-474 cell line) was 41.78% and 37.43%.

In the case of N#Cc1ccc(C(c2ccc(C#N)cc2)n2cncn2)cc1 [Letrozole], the “cell inhibitory activity (in words)” value (BT-474 cell line) is reported as “weak or no response”, the Max inh. (BT-474 cell line) is reported as −15.80% and the IC50 (BT-474 cell line; Homo sapiens, 72 h) is reported as > 10000 nM.

CC(=O)O[C@H]1C(=O)[C@@]2(C)[C@H]([C@H](OC(=O)c3ccccc3)[C@]3(O)C[C@H](OC(=O)[C@H](O)[C@@H](NC(=O)c4ccccc4)c4ccccc4)C(C)=C1C3(C)C)[C@]1(OC(C)=O)CO[C@@H]1C[C@@H]2O [Paclitaxel] gave a GI50 (H1975 cells; Homo sapiens, NCI-H1975, 48 h) of 21.6 nM, a GI50 (HCC827 cells; Homo sapiens, 72 h) of 3.4 nM and a GI50 (BT-474 cells; Homo sapiens, BT-474, 72 h) of 1 nM. It also gave a GI50 (MDA-MB-453 cells; Homo sapiens, MDA-MB-453, 72 h) of 3 nM.

With CC(=O)c1c(C)c2cnc(Nc3ccc(N4CCNCC4)cn3)nc2n(C2CCCC2)c1=O [Palbociclib] the Max inh. (BT-474 cell line) was 12.13% and the IC50 (BT-474 cell line; Homo sapiens, 72 h) was > 5000 nM.

Nc1nc2[nH]cc(CCc3ccc(C(=O)N[C@@H](CCC(=O)O)C(=O)O)cc3)c2c(=O)[nH]1 [Pemetrexed] was tested, and the “cell inhibitory activity (in words)” value (Calu-3 cell line) was “not effective”, the Max inh. (Calu-3 cell line) was 49.78% and the IC50 (Calu-3 cell line; [1]) was > 10000 nM. The “cell inhibitory activity (in words)” value (BT-474 cell line) was “not effective”, the Max inh. (BT-474 cell line) was 1.78% and the IC50 (BT-474 cell line; Homo sapiens, 72 h) was > 10000 nM.

C=CC(=O)N1CCC(Oc2cc3c(Nc4ccc(Cl)c(Cl)c4F)ncnc3cc2OC)CC1 [Poziotinib, 1-[4-[4-(3,4-dichloro-2-fluoroanilino)-7-methoxyquinazolin-6-yl]oxypiperidin-1-yl]prop-2-en-1-one] was tested, and the GI50 (H1975 cells) was 1.3 nM, the GI50 (TE-4 cells) was 0.8 nM and the IC50 (SK-BR-3 cell line; Homo sapiens, 72 h) was 1 nM. It also gave a Max inh. (SK-BR-3 cell line) of 57.81%, a GI50 (SK-BR-3 cells) of 0.9 nM and a GI50 (MDA-MB-468 cells) of 640 nM. It also gave a GI50 (N87 cells) of 0.1 nM, a GI50 (HCC827 cells; Homo sapiens, 72 h) of 0.4 nM and a GI50 (BT-474 cells; Homo sapiens, BT-474, 72 h) of 0.5 nM. It also gave a GI50 (MCF-7 cells) of 2740 nM, a GI50 (MDA-MB-453 cells; Homo sapiens, MDA-MB-453, 72 h) of 2.5 nM and a GI50 (MDA-MB-361 cells) of 21 nM. The Max inh. (Calu-3 cell line) was 94.51% and 81.67%, the Max inh. (Calu-3 cell line; listed as Pozotinb) was 89.22% and the Max inh. (BT-474 cell line) was 71.74%. For the same compound, the IC50 (BT-474 cell line; listed as Pozotinb) was < 1.5 nM, the Max inh. (BT-474 cell line; listed as Pozotinb) was 68.16% and the IC50 (BT-474 cell line; Homo sapiens, 72 h) was < 1.5 nM.

CNC(=O)c1cc(Oc2ccc(NC(=O)Nc3ccc(Cl)c(C(F)(F)F)c3)cc2)ccn1 [Sorafenib] gave a Max inh. (Calu-3 cell line) of 64.29% and an IC50 (Calu-3 cell line; [1]) of 4480 nM.

With CO[C@H]1C[C@@H]2CC[C@@H](C)[C@@](O)(O2)C(=O)C(=O)N2CCCC[C@H]2C(=O)O[C@H]([C@H](C)C[C@@H]2CC[C@@H](OC(=O)C(C)(CO)CO)[C@H](OC)C2)CC(=O)[C@H](C)/C=C(\C)[C@@H](O)[C@@H](OC)C(=O)[C@H](C)C[C@H](C)/C=C/C=C/C=C/1C [Temsirolimus] the Max inh. (Calu-3 cell line) was 58.19% and the IC50 (Calu-3 cell line; [1]) was 167 nM.

Compound CC(=O)Nc1cccc(-n2c(=O)n(C3CC3)c(=O)c3c(Nc4ccc(I)cc4F)n(C)c(=O)c(C)c32)c1 [Trametinib] has a Max inh. (Calu-3 cell line) of 89.69%, an IC50 (Calu-3 cell line; [1]) of 42 nM and a Max inh. (BT-474 cell line) of 15.91%. The IC50 (BT-474 cell line; Homo sapiens, 72 h) was > 10000 nM.

CCC1=C[C@@H]2CN(C1)Cc1c([nH]c3ccccc13)[C@@](C(=O)OC)(c1cc3c(cc1OC)N(C)[C@H]1[C@@](O)(C(=O)OC)[C@H](OC(C)=O)[C@]4(CC)C=CCN5CC[C@]31[C@@H]54)C2 [Vinorelbine] gave a GI50 (SK-BR-3 cells) of 1.7 nM, a GI50 (MDA-MB-468 cells) of 0.3 nM and a GI50 (BT-474 cells; Homo sapiens, BT-474, 72 h) of 2.3 nM. The GI50 (MCF-7 cells) was 3.6 nM and the GI50 (MDA-MB-361 cells) was 1.1 nM.

For ado-trastuzumab emtansine [T-DM1], the Max inh. (SK-BR-3 cell line) was 85.37%, the IC50 (Calu-3 cell line) was 90.449 µg/mL and the Max inh. (Calu-3 cell line) was 55.24%.
